pIC50: −log10 of the molar value.
How the values were obtained:
KRAS G12C = target: T1, KRAS G12C (Homo sapiens, UniProt P01116, G12C); experiment: SOS1 catalyzed nucleotide exchange assay (TR-FRET); assay type: biochemical; conditions: GDP-loaded HIS-KRAS(G12C), 1 hour pre-incubation with compound
T1 construct: HIS-KRAS (G12C, aa 2-185, Sino biological); purchased Sino biological
How it was run: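 EDTA-stripped, GDP-loaded His-KRAS G12C (aa 2-185; 3 nM final) preincubated 1 h with compound, then SOS1 ExD (aa 564-1049; 2 μM) and BODIPY-FL GTP (80 nM) added for 4 h at 25 °C. TR-FRET via anti-His Tb cryptate (515/486 nm ratio); IC50 from 4-parameter logistic fit.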

[1] = test system: Phospho-ERK1/2(THR202/TYR204) in NCI-H358 cells express KRAS G12C; experiment: Phospho-ERK1/2(THR202/TYR204) HTRF assay; assay type: cell-based; conditions: Homo sapiens; NCI-H358, 2 hours incubation; read-out: p-ERK inhibition in NCI-H358 IC50
How it was run: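 Compounds applied to attached cells for 2 h at 37 °C in RPMI 1640 with 0.1% FBS. Lysate phospho-ERK1/2 detected by HTRF after 4 h antibody incubation at 25 °C; IC50 from 4-parameter logistic fit.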

[2] = test system: NCI-H358 cells express KRAS G12C; experiment: Cell growth inhibition assay (CCK-8); assay type: cell-based; conditions: Homo sapiens, 144 h; NCI-H358, 6 days incubation
How it was run: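 Antiproliferative read-out: KRAS G12C-mutant NCI-H358 lung cancer cells (3000/well) exposed to compounds in RPMI 1640 with 10% FBS for 6 days at 37°C. Viability by CCK-8 (OD450) after 1.5-2 h; IC50 from 4-parameter logistic fit.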

NCI-H1373 cells = experiment: NCI-H1373 xenograft model; assay type: in vivo, female BALB/c mice; conditions: for TGI % / Tumor volume at the end (Day 22): Day 22
Protocol: 4. NCI-H1373 xenograft model
NCI-H1373 cells (5.0E+06 cells) were injected subcutaneously into the right flank of female BALB/c mice (6-8 weeks) in a mixture with Matrigel (BD Bioscience). Mice were monitored daily and caliper measurements began when tumors became visible. Tumor volume was calculated by measuring two perpendicular diameters using the following formula: (L*w^2)/2 in which L and w refer to the length and width tumor diameter, respectively. When the average tumor volume reached 150-200 mm^3, mice were grouped (n=6/group) and treated with compounds. Tumor volume and mice weight was measured twice a week during treatment (˜3 weeks). Tumor growth inhibition rates were calculated by TGI %=(1−(Vt−Vt0)/(Vc−Vc0))*100%, where Vc, Vt are the mean tumor volume of control and treated groups at the end of the study, and Vc0 and Vt0 are the mean tumor volume of control and treated groups at the start.

T1 sequence (P01116 2-185 isoform P01116-2 G12C): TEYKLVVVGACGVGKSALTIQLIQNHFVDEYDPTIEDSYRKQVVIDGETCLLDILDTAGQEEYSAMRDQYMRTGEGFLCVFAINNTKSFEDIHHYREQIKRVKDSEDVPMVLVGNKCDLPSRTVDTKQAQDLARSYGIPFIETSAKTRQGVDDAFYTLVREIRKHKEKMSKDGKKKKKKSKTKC

C=CC(=O)N1CCN(c2nc(OCC3(CN4CCCC4)CC3)nc3c2CCN(c2cccc4cccc(C)c24)C3)CC1CC#N (centres unmarked) [Compound 56, 2-(1-acryloyl-4-(7-(8-methylnaphthalen-1-yl)-2-((1-(pyrrolidin-1-ylmethyl)cyclopropyl)methoxy)-5,6,7,8-tetrahydropyrido[3,4-d]pyrimidin-4-yl)piperazin-2-yl)acetonitrile]
pIC50 (KRAS G12C): 8.50
pIC50 [1]: 7.42
pIC50 [2]: 7.65
TGI % (NCI-H1373 cells; Table 2, 10 mg/kg, BID): 102.5%
Tumor volume at the end (Day 22) (NCI-H1373 cells; Table 2, 10 mg/kg, BID): 148 mm^3
Tumor volume at the start (NCI-H1373 cells; Table 2, 10 mg/kg, BID): 191 mm^3

C=CC(=O)N1CCN(c2nc(OCC3(CN4CCCC4)CC3)nc3c2CCN(c2cccc4cccc(C)c24)C3)C[C@@H]1CC#N [Compound 67, (S)-2-(1-acryloyl-4-(7-(8-methylnaphthalen-1-yl)-2-((1-(pyrrolidin-1-ylmethyl)cyclopropyl)methoxy)-5,6,7,8-tetrahydropyrido[3,4-d]pyrimidin-4-yl)piperazin-2-yl)acetonitrile]
pIC50 (KRAS G12C): 8.74
pIC50 [1]: 7.65
pIC50 [2]: 7.69
TGI % (NCI-H1373 cells; Table 3, 10 mg/kg, QD): 106.1%
Tumor volume at the end (Day 22) (NCI-H1373 cells; Table 3, 10 mg/kg, QD): 114 mm^3
Tumor volume at the start (NCI-H1373 cells; Table 3, 10 mg/kg, QD): 188 mm^3

COC/C=C/C(=O)N1CCN(c2nc(OCC3(CN(C)C)CC3)nc3c2CCN(c2cccc4cccc(C)c24)C3)CC1CC#N (centres unmarked) [Compound 70, (E)-2-(4-(2-((1-((dimethylamino)methyl)cyclopropyl)methoxy)-7-(8-methylnaphthalen-1-yl)-5,6,7,8-tetrahydropyrido[3,4-d]pyrimidin-4-yl)-1-(4-methoxybut-2-enoyl)piperazin-2-yl)acetonitrile]
pIC50 (KRAS G12C): 8.47
pIC50 [1]: 6.76
pIC50 [2]: 6.71

C=C(F)C(=O)N1CCN(c2nc(OCC3(CN4CCN(C)CC4)CC3)nc3c2CCN(c2cccc4cccc(C)c24)C3)CC1CC#N (centres unmarked) [Compound 71, 2-(1-(2-fluoroacryloyl)-4-(7-(8-methylnaphthalen-1-yl)-2-((1-((4-methylpiperazin-1-yl)methyl)cyclopropyl)methoxy)-5,6,7,8-tetrahydropyrido[3,4-d]pyrimidin-4-yl)piperazin-2-yl)acetonitrile]
pIC50 (KRAS G12C): 8.12
pIC50 [1]: 6.30
pIC50 [2]: 6.43

C=C(F)C(=O)N1CCN(c2nc(OCC3(CN4CCCC4)CC3)nc3c2CCN(c2cccc4cccc(C)c24)C3)CC1CC#N (centres unmarked) [Compound 72, 2-(1-(2-fluoroacryloyl)-4-(7-(8-methylnaphthalen-1-yl)-2-((1-(pyrrolidin-1-ylmethyl)cyclopropyl)methoxy)-5,6,7,8-tetrahydropyrido[3,4-d]pyrimidin-4-yl)piperazin-2-yl)acetonitrile]
pIC50 (KRAS G12C): 7.93
pIC50 [1]: 6.67
pIC50 [2]: 6.42

C=C(F)C(=O)N1CCN(c2nc(OCC3(CN4CCC4)CC3)nc3c2CCN(c2cccc4cccc(C)c24)C3)CC1CC#N (centres unmarked) [Compound 73, 2-(4-(2-((1-(azetidin-1-ylmethyl)cyclopropyl)methoxy)-7-(8-methylnaphthalen-1-yl)-5,6,7,8-tetrahydropyrido[3,4-d]pyrimidin-4-yl)-1-(2-fluoroacryloyl)piperazin-2-yl)acetonitrile]
pIC50 (KRAS G12C): 7.77
pIC50 [1]: 6.02
pIC50 [2]: 6.05

C/C=C/C(=O)N1CCN(c2nc(OCC3(CN4CCCC4)CC3)nc3c2CCN(c2cccc4cccc(C)c24)C3)CC1CC#N (centres unmarked) [Compound 74, (E)-2-(1-(but-2-enoyl)-4-(7-(8-methylnaphthalen-1-yl)-2-((1-(pyrrolidin-1-ylmethyl)cyclopropyl)methoxy)-5,6,7,8-tetrahydropyrido[3,4-d]pyrimidin-4-yl)piperazin-2-yl)acetonitrile]
pIC50 (KRAS G12C): 7.18
pIC50 [1]: < 6.30
pIC50 [2]: 5.82

C=C(F)C(=O)N1CCN(c2nc(OCC3(CN4CC(N(C)C)C4)CC3)nc3c2CCN(c2cccc4cccc(C)c24)C3)CC1CC#N (centres unmarked) [Compound 75, 2-(4-(2-((1-((3-(dimethylamino)azetidin-1-yl)methyl)cyclopropyl)methoxy)-7-(8-methylnaphthalen-1-yl)-5,6,7,8-tetrahydropyrido[3,4-d]pyrimidin-4-yl)-1-(2-fluoroacryloyl)piperazin-2-yl)acetonitrile]
pIC50 (KRAS G12C): 8.14
pIC50 [1]: 6.39
pIC50 [2]: 6.63

C=C(F)C(=O)N1CCN(c2nc(OCC3(CN(CC)CC)CC3)nc3c2CCN(c2cccc4cccc(C)c24)C3)CC1CC#N (centres unmarked) [Compound 76, 2-(4-(2-((1-((diethylamino)methyl)cyclopropyl)methoxy)-7-(8-methylnaphthalen-1-yl)-5,6,7,8-tetrahydropyrido[3,4-d]pyrimidin-4-yl)-1-(2-fluoroacryloyl)piperazin-2-yl)acetonitrile]
pIC50 (KRAS G12C): 7.93
pIC50 [1]: 6.45
pIC50 [2]: 6.38

Cc1cccc2cccc(N3CCc4c(nc(OCC5(CN(C)C)CC5)nc4N4CCN(C(=O)/C=C/CF)C(CC#N)C4)C3)c12 (centres unmarked) [Compound 77, (E)-2-(4-(2-((1-((dimethylamino)methyl)cyclopropyl)methoxy)-7-(8-methylnaphthalen-1-yl)-5,6,7,8-tetrahydropyrido[3,4-d]pyrimidin-4-yl)-1-(4-fluorobut-2-enoyl)piperazin-2-yl)acetonitrile]
pIC50 (KRAS G12C): 8.91
pIC50 [1]: 7.23
pIC50 [2]: 7.54

C=C(F)C(=O)N1CCN(c2nc(OCC3(CN(C)C)CC3)nc3c2CCN(c2cccc4cccc(C)c24)C3)CC1CC#N (centres unmarked) [Compound 78, 2-(4-(2-((1-((dimethylamino)methyl)cyclopropyl)methoxy)-7-(8-methylnaphthalen-1-yl)-5,6,7,8-tetrahydropyrido[3,4-d]pyrimidin-4-yl)-1-(2-fluoroacryloyl)piperazin-2-yl)acetonitrile]
pIC50 (KRAS G12C): 8.08
pIC50 [1]: 6.68
pIC50 [2]: 6.68

C=C(F)C(=O)N1CCN(c2nc(OCC3(CN(C)C)CC3)nc3c2CCN(c2cccc4cccc(Cl)c24)C3)CC1CC#N (centres unmarked) [Compound 79, 2-(4-(7-(8-chloronaphthalen-1-yl)-2-((1-((dimethylamino)methyl)cyclopropyl)methoxy)-5,6,7,8-tetrahydropyrido[3,4-d]pyrimidin-4-yl)-1-(2-fluoroacryloyl)piperazin-2-yl)acetonitrile]
pIC50 (KRAS G12C): 8.22
pIC50 [1]: 6.36
pIC50 [2]: 6.62

CN(C)CC1(COc2nc3c(c(N4CCN(C(=O)/C=C/CF)[C@@H](CC#N)C4)n2)CCN(c2cccc4cccc(Cl)c24)C3)CC1 [Compound 84, (S,E)-2-(4-(7-(8-chloronaphthalen-1-yl)-2-((1-((dimethylamino)methyl)cyclopropyl)methoxy)-5,6,7,8-tetrahydropyrido[3,4-d]pyrimidin-4-yl)-1-(4-fluorobut-2-enoyl)piperazin-2-yl)acetonitrile]
pIC50 (KRAS G12C): 8.80
pIC50 [1]: 7.10
pIC50 [2]: 7.61

Cc1cccc2cccc(N3CCc4c(nc(OCC5(CN(C)C)CC5)nc4N4CCN(C(=O)/C=C/CN(C)C)C(CC#N)C4)C3)c12 (centres unmarked) [Compound 85, (E)-2-(1-(4-(dimethylamino)but-2-enoyl)-4-(2-((1-((dimethylamino)methyl)cyclopropyl)methoxy)-7-(8-methylnaphthalen-1-yl)-5,6,7,8-tetrahydropyrido[3,4-d]pyrimidin-4-yl)piperazin-2-yl)acetonitrile]
pIC50 (KRAS G12C): 8.54
pIC50 [1]: 6.82
pIC50 [2]: 6.88

Cc1cccc2cccc(N3CCc4c(nc(OCC5(CN6CCCC6)CC5)nc4N4CCN(C(=O)/C=C/CN(C)C)C(CC#N)C4)C3)c12 (centres unmarked) [Compound 86, (E)-2-(1-(4-(dimethylamino)but-2-enoyl)-4-(7-(8-methylnaphthalen-1-yl)-2-((1-(pyrrolidin-1-ylmethyl)cyclopropyl)methoxy)-5,6,7,8-tetrahydropyrido[3,4-d]pyrimidin-4-yl)piperazin-2-yl)acetonitrile]
pIC50 (KRAS G12C): < 6.30
pIC50 [1]: 6.88
pIC50 [2]: 6.99

C=C(F)C(=O)N1CCN(c2nc(OCC3CCCN3C)nc3c2CCN(c2cccc4cccc(Cl)c24)C3)C[C@@H]1CC#N (some centres unmarked) [MRTX 849, MRTX849, reference compound]
TGI % (NCI-H1373 cells; Table 2, 10 mg/kg, QD): 79.0%
Tumor volume at the end (Day 22) (NCI-H1373 cells; Table 2, 10 mg/kg, QD): 553 mm^3
TGI % (NCI-H1373 cells; Table 3, 10 mg/kg, QD): 86.3%
Tumor volume at the end (Day 22) (NCI-H1373 cells; Table 3, 10 mg/kg, QD): 355 mm^3
Tumor volume at the start (NCI-H1373 cells; Table 3, 10 mg/kg, QD): 188 mm^3
